*1 amine or outer side, *2 acyl side, *3 side chain or, on linkers, in order; H or OH if unused. Where a SMILES comes first, the peptide text is derived from it. Bridges are numbered along the chain shown (N, C = ends). Roman numbers before positions name the chains, in order. [ ]: non-standard residue; d: D form. Diglycolyl = O=C(COCC(=O)[*:2])[*:1]; NMeR = CN[C@@H](CCCNC(=N)N)C(=O)O; X1 = O=C(c1ccccc1C[*:2])[*:1]; Pen = CC(C)(S)[C@H](N)C(=O)O
biological target: T1, RPMI 8866 cells (Homo sapiens, UniProt P13612+P26010); test: α4β7-MAdCAM Cell Adhesion Assay; type: cell-based; conditions: thioether monomer peptides, Table 6; read-out: Cell-Adhesion A4B7
T1 sequence (P13612 34-1032): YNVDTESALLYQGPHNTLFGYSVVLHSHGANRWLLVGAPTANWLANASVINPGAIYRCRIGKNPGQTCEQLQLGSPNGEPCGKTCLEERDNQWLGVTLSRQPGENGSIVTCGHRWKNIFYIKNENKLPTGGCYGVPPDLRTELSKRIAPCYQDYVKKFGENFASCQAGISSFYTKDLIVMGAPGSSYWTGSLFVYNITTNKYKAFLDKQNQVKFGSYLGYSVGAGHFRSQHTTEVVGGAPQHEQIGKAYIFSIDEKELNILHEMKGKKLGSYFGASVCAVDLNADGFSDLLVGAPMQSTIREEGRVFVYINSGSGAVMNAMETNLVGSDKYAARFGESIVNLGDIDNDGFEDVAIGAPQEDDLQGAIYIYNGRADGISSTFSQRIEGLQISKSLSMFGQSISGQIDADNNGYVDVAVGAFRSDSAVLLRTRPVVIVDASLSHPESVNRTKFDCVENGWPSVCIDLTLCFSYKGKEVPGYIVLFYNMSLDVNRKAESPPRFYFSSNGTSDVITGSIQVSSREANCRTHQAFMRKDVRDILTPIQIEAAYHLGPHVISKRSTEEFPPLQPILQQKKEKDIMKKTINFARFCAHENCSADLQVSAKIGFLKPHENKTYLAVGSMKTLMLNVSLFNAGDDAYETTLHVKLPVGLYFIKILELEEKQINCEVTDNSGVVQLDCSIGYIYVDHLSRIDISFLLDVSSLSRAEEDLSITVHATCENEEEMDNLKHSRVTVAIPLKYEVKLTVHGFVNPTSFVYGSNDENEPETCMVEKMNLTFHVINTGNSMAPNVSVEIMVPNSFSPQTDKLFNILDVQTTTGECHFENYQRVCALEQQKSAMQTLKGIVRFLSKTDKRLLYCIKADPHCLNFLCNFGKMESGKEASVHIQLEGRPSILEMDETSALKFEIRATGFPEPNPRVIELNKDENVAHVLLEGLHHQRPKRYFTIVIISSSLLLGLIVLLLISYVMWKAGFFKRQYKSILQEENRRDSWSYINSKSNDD
T1 sequence (P26010 20-798): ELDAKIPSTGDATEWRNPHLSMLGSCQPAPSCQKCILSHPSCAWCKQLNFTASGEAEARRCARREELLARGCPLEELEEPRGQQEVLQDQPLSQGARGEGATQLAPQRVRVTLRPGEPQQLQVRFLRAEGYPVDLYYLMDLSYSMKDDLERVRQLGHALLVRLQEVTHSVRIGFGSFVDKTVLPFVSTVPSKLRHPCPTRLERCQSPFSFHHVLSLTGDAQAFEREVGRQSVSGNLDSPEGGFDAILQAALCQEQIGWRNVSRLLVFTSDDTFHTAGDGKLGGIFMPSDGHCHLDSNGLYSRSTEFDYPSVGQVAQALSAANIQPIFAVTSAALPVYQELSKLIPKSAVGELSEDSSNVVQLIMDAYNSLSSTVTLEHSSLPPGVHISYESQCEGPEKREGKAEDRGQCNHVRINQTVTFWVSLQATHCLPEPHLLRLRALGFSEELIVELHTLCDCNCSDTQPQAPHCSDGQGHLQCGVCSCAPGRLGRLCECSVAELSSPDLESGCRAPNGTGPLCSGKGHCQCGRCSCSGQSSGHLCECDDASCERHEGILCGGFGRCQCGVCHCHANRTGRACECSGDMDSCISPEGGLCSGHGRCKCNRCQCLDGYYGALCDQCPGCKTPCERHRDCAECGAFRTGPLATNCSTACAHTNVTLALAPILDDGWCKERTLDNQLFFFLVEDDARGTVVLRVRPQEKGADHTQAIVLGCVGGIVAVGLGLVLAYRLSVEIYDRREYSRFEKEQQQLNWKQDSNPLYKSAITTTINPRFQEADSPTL
In short: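 RPMI 8866 cells (200,000/well) in DMEM with 1 mM MnCl2 and 0.1% BSA were allowed to adhere 30-45 min at 37° C to plates coated with rh MAdCAM-1/Fc (200 ng/well) in presence of serially diluted peptide. After washing, bound cells quantified by MTT, absorbance 570 nm, cell-free background subtracted.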

SMILES	IC50
CC(C)C[C@@H]1NC(=O)[C@H]([C@@H](C)O)NC(=O)[C@H](CC(=O)O)NC(=O)[C@H](CO)NC(=O)[C@H](CCCNC(=N)N)N(C)C(=O)c2ccccc2CSC(C)(C)[C@@H](C(=O)N[C@@H](Cc2c[nH]c3ccccc23)C(=O)N[C@H](CCC(=O)O)C(=O)N[C@@H](CO)C(N)=O)NC1=O [compound 100] (HELM PEPTIDE1{[meR].S.D.T.L.[Pen].W.[dE].S.[am]}|CHEM1{[O=C(c1ccccc1C[*:2])[*:1]]}$PEPTIDE1,CHEM1,1:R1-1:R1|PEPTIDE1,CHEM1,6:R3-1:R2$$$V2.0)	25 to 100 nM
CC(C)C[C@@H]1NC(=O)[C@H]([C@@H](C)O)NC(=O)[C@H](CC(=O)O)NC(=O)[C@H](CO)NC(=O)[C@H](CCCNC(=N)N)N(C)C(=O)c2ccccc2CSC(C)(C)[C@@H](C(=O)N[C@@H](Cc2c[nH]c3ccccc23)C(=O)N[C@H](CCC(=O)O)C(=O)N[C@@H](Cc2c[nH]cn2)C(N)=O)NC1=O [compound 102] (HELM PEPTIDE1{[meR].S.D.T.L.[Pen].W.[dE].H.[am]}|CHEM1{[O=C(c1ccccc1C[*:2])[*:1]]}$PEPTIDE1,CHEM1,1:R1-1:R1|PEPTIDE1,CHEM1,6:R3-1:R2$$$V2.0)	25 to 100 nM
CC(C)C[C@@H]1NC(=O)[C@H]([C@@H](C)O)NC(=O)[C@H](CC(=O)O)NC(=O)[C@H](CO)NC(=O)[C@H](CCCNC(=N)N)N(C)C(=O)c2ccccc2CSC(C)(C)[C@@H](C(=O)N[C@@H](Cc2c[nH]c3ccccc23)C(=O)N[C@H](CCC(=O)O)C(=O)N[C@@H](CCN)C(N)=O)NC1=O [compound 95] (HELM PEPTIDE1{[meR].S.D.T.L.[Pen].W.[dE].[Dab].[am]}|CHEM1{[O=C(c1ccccc1C[*:2])[*:1]]}$PEPTIDE1,CHEM1,1:R1-1:R1|PEPTIDE1,CHEM1,6:R3-1:R2$$$V2.0)	100 to 1000 nM
CC(C)C[C@@H]1NC(=O)[C@H]([C@@H](C)O)NC(=O)[C@H](CC(=O)O)NC(=O)[C@H](CO)NC(=O)[C@H](CCCNC(=N)N)N(C)C(=O)c2ccccc2CSC(C)(C)[C@@H](C(=O)N[C@@H](Cc2c[nH]c3ccccc23)C(=O)N[C@H](CCC(=O)O)C(=O)N[C@@H](Cc2ccccc2)C(N)=O)NC1=O [compound 101] (HELM PEPTIDE1{[meR].S.D.T.L.[Pen].W.[dE].F.[am]}|CHEM1{[O=C(c1ccccc1C[*:2])[*:1]]}$PEPTIDE1,CHEM1,1:R1-1:R1|PEPTIDE1,CHEM1,6:R3-1:R2$$$V2.0)	100 to 1000 nM
CC(C)C[C@@H]1NC(=O)[C@H]([C@@H](C)O)NC(=O)[C@H](CC(=O)O)NC(=O)[C@H](CO)NC(=O)[C@H](CCCNC(=N)N)N(C)C(=O)c2ccccc2CSC(C)(C)[C@@H](C(=O)N[C@@H](Cc2c[nH]c3ccccc23)C(=O)N[C@H](CCC(=O)O)C(=O)N[C@@H](Cc2ccc(O)cc2)C(N)=O)NC1=O [compound 104] (HELM PEPTIDE1{[meR].S.D.T.L.[Pen].W.[dE].Y.[am]}|CHEM1{[O=C(c1ccccc1C[*:2])[*:1]]}$PEPTIDE1,CHEM1,1:R1-1:R1|PEPTIDE1,CHEM1,6:R3-1:R2$$$V2.0)	25 to 100 nM

same assay, conditions: thioether peptide dimers, Table 7; read-out: Cell-Adhesion A4B7

SMILES	IC50
CC(C)C[C@@H]1NC(=O)[C@H]([C@@H](C)O)NC(=O)[C@H](CC(=O)O)NC(=O)[C@H](CO)NC(=O)[C@H](CCCNC(=N)N)N(C)C(=O)c2ccccc2CSC(C)(C)[C@@H](C(=O)N[C@@H](Cc2ccccc2)C(=O)N[C@H](CCC(=O)O)C(=O)N[C@H](CCCCNC(=O)COCC(=O)NCCCC[C@@H](NC(=O)[C@@H](CCC(=O)O)NC(=O)[C@H](Cc2ccccc2)NC(=O)[C@H]2NC(=O)[C@H](CC(C)C)NC(=O)[C@H]([C@@H](C)O)NC(=O)[C@H](CC(=O)O)NC(=O)[C@H](CO)NC(=O)[C@H](CCCNC(=N)N)N(C)C(=O)c3ccccc3CSC2(C)C)C(=O)O)C(=O)O)NC1=O [compound 204] (I: [NMeR]SDTL[Pen]F[dE][dK]-OH / II: [NMeR]SDTL[Pen]F[dE][dK]-OH; linker I:9-II:9 via Diglycolyl; linker I:N-I:6, II:N-II:6 via X1)	< 25 nM

Reference: patent publication US20260217767A1, “NOVEL A4B7 THIOETHER PEPTIDE DIMER ANTAGONISTS” (Protagonist Therapeutics, Inc., priority 2014, published 2026)
